According to patent US9006433B2, “Substituted pyrimidines” (Merck Sharp & Dohme Corp., priority 2010, dated 2015):
pIC50: −log10 of the molar value.

Target: T1, PHD2 (Homo sapiens, UniProt Q9GZT9)
T1 construct: FLAG-tagged full length PHD2 expressed in and purified from baculovirus-infected Sf9 cells; FLAG; made in house; host or cells: baculovirus-infected Sf9 cells
Assay: PHD2 inhibition assay (time resolved fluorescence, HIF-1α peptide hydroxylation / VHL complex detection)
Format: biochemical
Details: FLAG-tagged full length PHD2; 0.2 μM 2-oxoglutarate, 0.5 μM HIF-1α peptide
Method: To each well of a 96-well plate was added 1 μL of test compound in DMSO and 20 μl of assay buffer (50 mM Iris pH 7.4/0.01% Tween-20/0.1 mg/ml bovine serum albumin/10 μM ferrous sulfate/1 mM sodium ascorbate/20 μg/ml catalase) containing 0.15 μg/ml FLAG-tagged full length PHD2 expressed in and purified from baculovirus-infected Sf9 cells. After a 30 min preincubation at room temperature, the enzymatic reactions were initiated by the addition of […] of substrates (final concentrations of 0.2 μM 2-oxoglutarate and 0.5 μM HIF-1α peptide biotinyl-DLDLEMLAPYIPMDDDFQL (SEQ ID NO:1)). After 2 hr at room temperature, the reactions were terminated and signals were developed by the addition of a 25 μL quench/detection mix to a final concentration of 1 mM ortho-phenanthroline, 0.1 mM EDTA, 0.5 nM anti-(His)6 LANCE reagent (Perkin-Elmer Life Sciences), 100 nM AF647-labeled streptavidin (Invitrogen), and 2 μg/ml (His)-6-VHL complex (S. Tan(2001) Protein Expr. Purif. 21, 224-234). The ratio of time resolved fluorescence signals at 665 and 620 nm was determined, and percent inhibition was calculated relative to an uninhibited control sample run in parallel.

T1 sequence (Q9GZT9 whole entry, species assumed): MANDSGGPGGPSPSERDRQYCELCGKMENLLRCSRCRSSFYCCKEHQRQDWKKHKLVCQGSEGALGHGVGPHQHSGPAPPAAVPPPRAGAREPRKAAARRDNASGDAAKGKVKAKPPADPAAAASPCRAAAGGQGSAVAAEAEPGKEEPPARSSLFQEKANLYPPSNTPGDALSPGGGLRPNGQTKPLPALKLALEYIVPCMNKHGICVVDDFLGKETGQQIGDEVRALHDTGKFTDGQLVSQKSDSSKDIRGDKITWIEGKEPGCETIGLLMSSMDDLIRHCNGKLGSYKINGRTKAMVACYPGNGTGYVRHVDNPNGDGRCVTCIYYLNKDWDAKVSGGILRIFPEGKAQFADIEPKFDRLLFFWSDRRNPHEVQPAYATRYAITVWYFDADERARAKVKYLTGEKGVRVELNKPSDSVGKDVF

| Structure (SMILES) | pIC50 |
| --- | --- |
| O=C(Cc1ccc(-c2ccccc2)cc1)Nc1cnc(-n2cccn2)nc1O [Compound 3-42, 2-(biphenyl-4-yl)-N-(4-hydroxy-2-(1H-pyrazol-1-yl)pyrimidin-5-yl)acetamide] | 7.70 to 9.30 |
| CCCCCCC(=O)Nc1cnc(-n2cccn2)nc1O [Compound 3-43, N-(4-hydroxy-2-(1H-pyrazol-1-yl)pyrimidin-5-yl)heptanamide] | 7.70 to 9.30 |
| O=C(CCc1ccccc1)Nc1cnc(-n2cccn2)nc1O [Compound 3-44, N-(4-hydroxy-2-(1H-pyrazol-1-yl)pyrimidin-5-yl)-3-phenylpropanamide] | 7.00 to 7.70 |
| O=C(CCCc1ccccc1)Nc1cnc(-n2cccn2)nc1O [Compound 3-45, N-(4-hydroxy-2-(1H-pyrazol-1-yl)pyrimidin-5-yl)-4-phenylbutanamide] | 7.70 to 9.30 |
| O=C(Nc1cnc(-n2cccn2)nc1O)C1CCCCC1 [Compound 3-46, N-(4-hydroxy-2-(1H-pyrazol-1-yl)pyrimidin-5-yl)cyclohexanecarboxamide] | 7.00 to 7.70 |
| CC(C)(C)OC(=O)N1CCC(C(=O)Nc2cnc(-n3cccn3)nc2O)CC1 [Compound 3-47, tert-butyl4-(4-hydroxy-2-(1H-pyrazol-1-yl)pyrimidin-5-ylcarbamoyl)piperidine-1-carboxylate] | 7.70 to 9.30 |
| O=C(CC1CCCCC1)Nc1cnc(-n2cccn2)nc1O [Compound 3-48, 2-cyclohexyl-N-(4-hydroxy-2-(1H-pyrazol-1-yl)pyrimidin-5-yl)acetamide] | 7.70 to 9.30 |
| CC(C)(C)OC(=O)N1CCCC(C(=O)Nc2cnc(-n3cccn3)nc2O)C1 (stereo not shown) [Compound 3-49, tert-butyl 3-(4-hydroxy-2-(1H-pyrazol-1-yl)pyrimidin-5-ylcarbamoyl)piperidine-1-carboxylate] | 5.00 to 7.00 |
| CC(C)(C)OC(=O)N1CCC(CC(=O)Nc2cnc(-n3cccn3)nc2O)CC1 [Compound 3-50, tert-butyl4-((4-hydroxy-2-(1H-pyrazol-1-yl)pyrimidin-5-ylcarbamoyl)methyl)piperidine-1-carboxylate] | 7.00 to 7.70 |
| CC(C)(C)OC(=O)N1CCC(C(=O)Nc2cnc(-n3cccn3)nc2O)C1 (stereo not shown) [Compound 3-51, tert-butyl 3-(4-hydroxy-2-(1H-pyrazol-1-yl)pyrimidin-5-ylcarbamoyl)pyrrolidine-1-carboxylate] | 7.00 to 7.70 |
| O=C(Nc1cnc(-n2cccn2)nc1O)C1CCCc2ccccc21 (stereo not shown) [Compound 3-52, 1,2,3,4-tetrahydro-N-(4-hydroxy-2-(1H-pyrazol-1-yl)pyrimidin-5-yl)naphthalene-1-carboxamide] | 7.70 to 9.30 |
| O=C(Nc1cnc(-n2cccn2)nc1O)C1CCc2ccccc21 (stereo not shown) [Compound 3-53, 2,3-dihydro-N-(4-hydroxy-2-(1H-pyrazol-1-yl)pyrimidin-5-yl)-1H-indene-1-carboxamide] | 7.70 to 9.30 |
| O=C(Nc1cnc(-n2cccn2)nc1O)C1CCc2ccccc2C1 (stereo not shown) [Compound 3-54, 1,2,3,4-tetrahydro-N-(4-hydroxy-2-(1H-pyrazol-1-yl)pyrimidin-5-yl)naphthalene-2-carboxamide] | 7.00 to 7.70 |
| O=C(Nc1cnc(-n2cccn2)nc1O)C1Cc2ccccc2C1 [Compound 3-55, 2,3-dihydro-N-(4-hydroxy-2-(1H-pyrazol-1-yl)pyrimidin-5-yl)-1H-indene-2-carboxamide] | 7.70 to 9.30 |
| O=S(=O)(Nc1cnc(-n2cccn2)nc1O)c1ccc(Cl)cc1 [Compound 4-1, 4-chloro-N-[4-hydroxy-2-(1H-pyrazol-1-yl)pyrimidin-5-yl]benzenesulfonamide] | 7.00 to 7.70 |
| O=S(=O)(Cc1ccc(Cl)cc1)Nc1cnc(-n2cccn2)nc1O [Compound 4-2, 1-(4-chlorophenyl)-N-[4-hydroxy-2-(1H-pyrazol-1-yl)pyrimidin-5-yl]methanesulfonamide] | 7.00 to 7.70 |
| O=S(=O)(Nc1cnc(-n2cccn2)nc1O)c1cccc(Cl)c1 [Compound 4-3, 3-chloro-N-[4-hydroxy-2-(1H-pyrazol-1-yl)pyrimidin-5-yl]benzenesulfonamide] | 5.00 to 7.00 |

| Structure (SMILES) | pIC50 |
| --- | --- |
| O=S(=O)(Cc1ccc(C(F)(F)F)cc1)Nc1cnc(-n2cccn2)nc1O [Compound 4-4, N-[4-hydroxy-2-(1H-pyrazol-1-yl)pyrimidin-5-yl]-1-[4-(trifluoromethyl)phenyl]methanesulfonamide] | 5.00 to 7.00 |
| O=C(Nc1ccccc1)Nc1cnc(-n2cccn2)nc1O [Compound 5-1, 1-(4-hydroxy-2-(1H-pyrazol-1-yl)pyrimidin-5-yl)-3-phenylurea] | 5.00 to 7.00 |
| O=C(NCc1ccccc1)Nc1cnc(-n2cccn2)nc1O [Compound 5-2, 1-benzyl-3-(4-hydroxy-2-(1H-pyrazol-1-yl)pyrimidin-5-yl)urea] | 7.70 to 9.30 |
| CC(NC(=O)Nc1cnc(-n2cccn2)nc1O)c1ccccc1 (stereo not shown) [Compound 5-3, 1-(4-hydroxy-2-(1H-pyrazol-1-yl)pyrimidin-5-yl)-3-(1-phenylethyl)urea] | 7.70 to 9.30 |
| O=C(Nc1cnc(-n2cccn2)nc1O)NC1CCCCC1 [Compound 5-4, 1-cyclohexyl-3-(4-hydroxy-2-(1H-pyrazol-1-yl)pyrimidin-5-yl)urea] | 7.00 to 7.70 |
| O=C(Nc1cnc(-n2cccn2)nc1O)NC1CCCC1 [Compound 5-5, 1-cyclopentyl-3-(4-hydroxy-2-(1H-pyrazol-1-yl)pyrimidin-5-yl)urea] | 5.00 to 7.00 |
| CC(C)(C)NC(=O)Nc1cnc(-n2cccn2)nc1O [Compound 5-6, ert-butyl-3-(4-hydroxy-2-(1H-pyrazol-1-yl)pyrimidin-5-yl)urea] | 5.00 to 7.00 |
| O=C(Nc1cnc(-n2cccn2)nc1O)N(c1ccccc1)c1ccccc1 [Compound 5-7, 3-(4-hydroxy-2-(1H-pyrazol-1-yl)pyrimidin-5-yl)-1,1-diphenylurea] | 7.70 to 9.30 |
| CC(C)N(C(=O)Nc1cnc(-n2cccn2)nc1O)c1ccccc1 [Compound 5-8, 3-(4-hydroxy-2-(1H-pyrazol-1-yl)pyrimidin-5-yl)-1-isopropyl-1-phenylurea] | 7.00 to 7.70 |
| O=C(Nc1cnc(-n2cccn2)nc1O)Oc1ccccc1 [Compound 5-9, phenyl 4-hydroxy-2-(1H-pyrazol-1-yl)pyrimidin-5-ylcarbamate] | 5.00 to 7.00 |
| O=C(Nc1cnc(-n2cccn2)nc1O)OC1CCCCC1 [Compound 5-10, cyclohexyl 4-hydroxy-2-(1H-pyrazol-1-yl)pyrimidin-5-ylcarbamate] | 7.00 to 7.70 |
| O=C(Nc1cnc(-n2cccn2)nc1O)OC1CCCC1 [Compound 5-11, cyclopentyl 4-hydroxy-2-(1H-pyrazol-1-yl)pyrimidin-5-ylcarbamate] | 7.00 to 7.70 |
| CC(C)(C)OC(=O)Nc1cnc(-n2cccn2)nc1O [Compound 5-12, tert-butyl 4-hydroxy-2-(1H-pyrazol-1-yl)pyrimidin-5-yl carbamate] | 5.00 to 7.00 |
| CCCCOC(=O)Nc1cnc(-n2cccn2)nc1O [Compound 5-13, butyl 4-hydroxy-2-(1H-pyrazol-1-yl)pyrimidin-5-ylcarbamate] | 5.00 to 7.00 |
| COc1ccc(OC(=O)Nc2cnc(-n3cccn3)nc2O)cc1 [Compound 5-14, 4-methoxyphenyl 4-hydroxy-2-(1H-pyrazol-1-yl)pyrimidin-5-ylcarbamate] | 7.00 to 7.70 |
| CC(C)(C)CCOC(=O)Nc1cnc(-n2cccn2)nc1O [Compound 5-15, 3,3-dimethylbutyl 4-hydroxy-2-(1H-pyrazol-1-yl)pyrimidin-5-ylcarbamate] | 7.00 to 7.70 |
| O=C(Nc1cnc(-n2cccn2)nc1O)OCCc1ccccc1 [Compound 5-16, phenethyl 4-hydroxy-2-(1H-pyrazol-1-yl)pyrimidin-5-ylcarbamate] | 7.00 to 7.70 |
